Where two headings read alike, the source gives them in different places.

The subject of series [1] is TIB-75 (inducing murine hepatocarcinoma). The experiment in a line: Cytotoxicity in TIB-75 tumor cell culture, ATP content. It is filed as cell-based. To be noted: TIB-75 cells, 16 hours of culture. The method, then:
(§1) After 16 hours of culture, cell state was recorded.
(§2) The cytotoxicity of the products was quantified by determining the ATP content in the cells and using neutral red intake, and the IC50ATP and IC50NR [μM] were determined.

Another series relates to C32 (human melanoma). The experiment in a line: Cytotoxicity in C32 tumor cell culture, ATP content. It is filed as cell-based. To be noted: C32 cells, 16 hours of culture. The method, then:
as §1, §2

Series [2] concerns LMH (chicken hepatocarcinoma). Put plainly: cells. The series is classed as cell-based. The settings on record: 16 hours of culture, ATP content. The method, then:
(§3) The cytotoxic activity of the products was tested in tumor cell cultures C32 (human melanoma), TIB-75 (inducing murine hepatocarcinoma), LMH (chicken hepatocarcinoma).
B) LMH cells were cultured in D-MEM medium containing 10% fetal serum and penicillin+streptomycin at 37° C. in air/5% CO2 atmosphere saturated with water vapor. Each well contained 5×10^4 cells and 0.5 ml medium. […] After 16 hours of culture, cell state was recorded.
as §2

The subject of series [3] is mammary gland 4T1 cancer cell line. The experiment in a line: Crystal violet cytotoxicity assay, E-DAPL/Dox combination. The settings on record: for IC50: Mus musculus. It is filed as cell-based. The method, then: The potentiation of cytotoxic effect of E-DAPL/Dox combination was evaluated. The dose-effect relationship of individual drugs and E-DAPL/Dox mixture (ratio 202:1 was tested) was determined on mammary gland 4T1 cancer cell line by means of crystal violet assay (three measurements). The linearized Median-Effect Plot of dose response line provided both parameters (IC50; trend line m value) of Median-Effect Equation for individual and combination treatment [ref: Theoretical basis, experimental design, and computerized simulation of synergism and antagonism in drug combination studies; Ting-Chao Chou: Pharmacol Rev. 58(3), 2006, 621-81; Erratum in Pharmacol Rev. 2007; 59(1), 124]:
Potentiation of combination effect of E-DAPL/Dox/202:1 was expressed for the concentrations IC1 to IC60 by calculation of Combination index (CI) applying Combination Index Theorem for mutually nonexclusive drugs that obey higher order conditions [ref: Quantitative analysis of dose-effect relationships: the combined effects of multiple drugs or enzyme inhibitors; Ting-Chao Chou, Paul Talalay: Advances in Enzyme Regulation, Volume 22, 1984, Pages 27-55]: […]

For series [4], the system named is tumor cell cultures C32, TIB-75, LMH. The experiment in a line: Cell state and growth in tumor cell cultures, controls and comparison products. To be noted: 0-240 μM, 16 hours of culture. The method, then:
As a control, the starting phospholipids were used at the same concentrations and conditions.
as §3
A) C32 cells were cultured in D-MEM medium containing 10% fetal serum and penicillin+streptomycin at 37° C. in air/5% CO2 atmosphere saturated with water vapor. Each well contained 5×10^4 cells and 0.5 ml medium. The tested products were added to the cells at concentrations of 0, 2.5, 5, 10, 20, 40, 80, 160 and 240 μM. After 16 hours of culture, cell state was recorded.
B) LMH cells were cultured in D-MEM medium containing 10% fetal serum and penicillin+streptomycin at 37° C. in air/5% CO2 atmosphere saturated with water vapor. Each well contained 5×10^4 cells and 0.5 ml medium. The tested phospholipids were added to the cells at concentrations of 0, 2.5, 5, 10, 20, 40, 80, 160 and 240 μM. After 16 hours of culture, cell state was recorded.
C) TIB-75 cells were cultured in D-MEM medium containing 10% fetal serum and penicillin+streptomycin at 37° C. in air/5% CO2 atmosphere saturated with water vapor. Each well contained 5×10^4 cells and 0.5 ml medium. The tested phospholipids were added to the cells at concentrations of 0, 2.5, 5, 10, 20, 40, 80, 160 and 240 μM. After 16 hours of culture, cell state was recorded.

With “1-acyl-lysophosphatidylethanolamine [PE/E-DAPL]”, the IC50 stood at 35 µM in series [1], 35 µM in the series on C32 (human melanoma) and 30 µM in series [2].
Turning to `C[N+](C)(C)CCOP(=O)([O-])OCC(O)COC(=O)CCC1CCCC1` (stereo not drawn) [sn-1 cyclopentanepropionyl PC/E-DAPL], the figures for the IC50 (in the series with C32 (human melanoma) (Homo sapiens); in series [2] (Gallus gallus)) were 150 µM and 130 µM, respectively.
As to `CCCCCCCCCCCCCCCCCC(=O)OCC(O)COP(=O)([O-])OCC[N+](C)(C)C` (stereo not drawn) [sn-1 stearoyl PC/E-DAPL], the figures for the IC50 (in series [1] (Mus musculus); with C32 (human melanoma) (Homo sapiens); in series [2] (Gallus gallus)) were 45 µM, 45 µM and 40 µM, respectively.
With `COc1cccc2c1C(=O)c1c(O)c3c(c(O)c1C2=O)C[C@@](O)(C(=O)CO)C[C@@H]3O[C@H]1C[C@H](N)[C@H](O)[C@H](C)O1` [Dox, doxorubicin], the “concentration of Dox at IC25” value in series [3] (4T1 cell line, Dox alone or within E-DAPL/Dox 202:1) was determined as 0.2306 µM. The IC50 in series [3] (4T1 cell line, Dox alone or within E-DAPL/Dox 202:1, read-out: concentration of Dox at IC50 level) was 0.93 µM; in series [3] (4T1 cells, crystal violet assay, calculated from the Median-Effect Plot, read-out: IC50), 0.93 µM.
On to `CC(CC(=O)OCC(O)COP(=O)([O-])OCC[N+](C)(C)C)CC(C)(C)C` (stereo not drawn) [sn-1 trimethylhexanoyl PC/E-DAPL], for which the IC50 in the series on C32 (human melanoma) (Homo sapiens) is 130 µM; in series [2] (Gallus gallus), 140 µM.
As to phosphatidylcholine [PC], the “cytotoxic activity: effect on phenotype and rate of cell growth” value in series [4] is listed as “did not affect the phenotype or reduce the rate of cell growth”.
On the same count and under the same terms, as for phosphatidylethanolamine [PE], the entry is “did not affect the phenotype or reduce the rate of cell growth”.
The same measure, in the same setting: as for “1-stearoyl-phosphatidylcholine [sn-1 stearoyl PC]”, the entry is “did not affect the phenotype or reduce the rate of cell growth”.
With `CCCCCC(=O)OCC(O)COP(=O)([O-])OCC[N+](C)(C)C` (stereo not drawn) [sn-1 hexanoyl PC/E-DAPL], the IC50 in series [1] (Mus musculus) worked out at 135 µM; in the series with C32 (human melanoma) (Homo sapiens), 130 µM; in series [2] (Gallus gallus) it was 135 µM.
For “1-acyl-lysophosphatidylcholine [PC/E-DAPL]”, the IC50 in series [1] was 45 µM; with C32 (human melanoma), 50 µM; in series [2], 35 µM.
Turning to “2-acyl-lysophosphatidylcholine [2-acyl PC (15-20% 1-acyl PC), reference compound]”, the IC50 in series [1] stood at 210 µM; in the series with C32 (human melanoma), 200 µM.
